From patent US4388320A, “3-Aminopropoxyaryl derivative in the treatment of tremor” (Sandoz Ltd., priority 1981, dated 1983)
“Also recorded” adds a separate entry of the source.

Columns and labels:
[1] = known use; cited from earlier work
acute toxicity, rat = settings: in vivo, hydrogen malonate form
From the text: (§1) The tolerability of the compound was also studied using standard tests. For example, the acute toxicity of the compound of formula I in hydrogen malonate form is as follows: […]

[2] = further, similar clinical study, 4 patients with essential (familiary) tremor (Table 2); assay type: in vivo; settings: 1 to 12 mg per day
Protocol: The result of a further, similar study with 4 patients with essential (familiary) tremor treated for 4 weeks with 1 to 12 mg per day of the compound of formula I in hydrogen malonate form is indicated in table 2: […]

[3] = clinical observations, treatment of tremor (overall); assay type: in vivo, patients
acute toxicity, rabbit = settings: in vivo, hydrogen malonate form
From the text: as §1

[4] = tested on: lipolysis and glycogenolysis induced by isoproterenol; settings: U.K. Patent Specification No. 1,575,510; cited from earlier work
adrenergic β-receptors = settings: U.K. Patent Specification No. 1,575,510; cited from earlier work
[5] = another clinical study, 6 patients with essential (familiary) tremor (Table 3); assay type: in vivo; settings: 4 to 12 mg per day
[6] = U.K. Patent Specification No. 1,575,510; cited from earlier work
acute toxicity, mouse = settings: in vivo, hydrogen malonate form
From the text: as §1

[7] = first clinical study, 6 patients with constant essential (familiary) tremor, 4 weeks (Table 1); assay type: in vivo
Protocol: In one clinical study 6 patients with constant essential (familiary) tremor were given for 4 weeks once-a-day in the morning a capsule containing 1 to 8 mg of the compound of formula I in hydrogen malonate form. The dosage was increased gradually over the first two weeks of the study.

[8] = tolerability and comparison with other agents in anti-tremor use; assay type: in vivo, patients
[9] = 4 patients, 4 weeks, hydrogen malonate form
[10] = 6 patients, 4 weeks, hydrogen malonate form
[11] = after 2 weeks, total 6 patients, capsule once-a-day, 1 to 8 mg, hydrogen malonate form
[12] = after 4 weeks, total 6 patients, capsule once-a-day, 1 to 8 mg, hydrogen malonate form

For `C=CCc1ccccc1OCC(O)CNC(C)C` (stereo not shown) [alprenolol], the activity against tremor [1] is listed as “inactive”.

For `Cc1cc2c(OCC(CNC(C)(C)C)OC(=O)c3ccccc3)cccc2[nH]1` (stereo not shown) [compound of formula I, 4(2-benzoyloxy-3-tert-butylaminopropoxy)-2-methylindole], the LD50 (acute toxicity, rat; iv, read-out: LD50 i.v.) was 9 mg/kg, the LD50 (acute toxicity, rat; po, read-out: LD50 p.o.) was 1010 mg/kg and the hypotension and bradycardia [2] was “no hypotension and no bradycardia”. The side effects [2] was “exceptionally few side effects”, the “time to first observed improvement” value [2] was “already after one week of treatment” and the “time to maximum improvement” value [2] was 2 weeks. The “improvement (in words)” value ([2]; 4 patients, 4 weeks) was “marked improvement was observed in all 4 patients”, the “Number of patients showing good improvement” value [2, 9] was 2 patients and the “Number of patients showing very good improvement” value [2, 9] was 2 patients. For the same compound, the “usefulness / improvement in treatment of tremor (in words)” value [3] was “impressive improvement; also recorded: useful in the treatment of tremor, especially of essential (familiary) tremor”, the LD50 (acute toxicity, rabbit; iv, read-out: LD50 i.v.) was 7 mg/kg and the LD50 (acute toxicity, rabbit; po, read-out: LD50 p.o.) was 334 mg/kg. For the same compound, the “inhibition of lipolysis and glycogenolysis” value [4] was “inhibit lipolysis and glycogenolysis induced by isoproterenol”, the “blocking effect on the adrenergic β-receptors” value (adrenergic β-receptors) was “blocking effect on the adrenergic β-receptors” and the hypotension and bradycardia [5] was “no hypotension and no bradycardia”. For the same compound, the “improvement (in words)” value ([5]; 6 patients, 4 weeks) was “These results were confirmed; also recorded: very good or good improvement was observed in all patients”, the “Number of patients showing good improvement” value [5, 10] was 3 patients and the “Number of patients showing very good improvement” value [5, 10] was 3 patients. The antiarrhythmic effect [6] was “antiarrhythmic effect”, the LD50 (acute toxicity, mouse; iv, read-out: LD50 i.v.) was 11 mg/kg and the LD50 (acute toxicity, mouse; po, read-out: LD50 p.o.) was 242 mg/kg. The “improvement in tremor, benefit (in words)” value ([7]; 6 patients, 4 weeks, 1 to 8 mg once-a-day) was “all patients gained benefit; also recorded: the degree of improvement was either marked or moderate”, the “Number of patients with marked (Ma) improvement after 2 weeks” value [7, 11] was 2 patients and the “Number of patients with moderate (Mo) improvement after 2 weeks” value [7, 11] was 4 patients. The “Number of patients with marked (Ma) improvement after 4 weeks” value [7, 12] was 3 patients, the “Number of patients with moderate (Mo) improvement after 4 weeks” value [7, 12] was 3 patients and the hypotension and bradycardia ([7]; during treatment) was “No hypotension and no bradycardia”. For the same compound, the side effects ([7]; during treatment) was “remarkably free of side effects”, the “duration of beneficial effect” value ([7]; once-a-day in the morning) was “the beneficial effect lasted the whole day” and the hypotension or bradycardia ([8]; in vivo) was “not induce hypotension or bradycardia”. For the same compound, the “influence on P-Q wave in the electrocardiogramm” value ([8]; in vivo) was “does not significantly influence the P-Q wave”, the overall safety ([8]; in vivo) was “exceptionally safe” and the “effect on blood pressure and heart rate” value ([8]; patients with underlying hypertension or tachycardia) was “normalization of blood pressure and heart rate”. For the same compound, the “onset of anti-tremor activity compared with anticholinergics” value ([8]; versus anticholinergics) was “more rapid onset of activity”, the “tolerability compared with anticholinergics” value ([8]; versus anticholinergics) was “better tolerated than anticholinergics” and the “tolerability compared with other β-adrenoceptor blocking agents” value ([8]; versus e.g. propranolol) was “better tolerated than other β-adrenoceptor blocking agents, e.g. propranolol”.

In the case of `C=CCOc1ccccc1OCC(O)CNC(C)C` (stereo not shown) [oxprenolol], the activity against tremor [1] is given as “inactive”.

In the case of `CC(C)NCC(O)COc1cccc2ccccc12` (stereo not shown) [propranolol], the activity against tremor [1] is given as “conflicting results”.

For `CC(C)(C)NC[C@H](O)COc1nsnc1N1CCOCC1` [timolol], the activity against tremor [1] is listed as “inactive”.
